These results are taken from patent US11319318B2, “Pyridinones and isoquinolinones as inhibitors of the bromodomain BRD9” (Boehringer Ingelheim International GmbH, priority 2015, dated 2022).

SMILES strings stand for the structures.

This assay has as its target T1, bromodomain of BRD9 (GST-BRD9 aa 130-259) / H3 K9/14/18/23Ac(1-28) peptide (Homo sapiens, UniProt Q9H8M2).
T1 construct: The protein corresponding to amino acids 130-259 that contains the bromodomain of BRD9; made in house; host or cells: E. coli
T1 sequence (Q9H8M2 130-259): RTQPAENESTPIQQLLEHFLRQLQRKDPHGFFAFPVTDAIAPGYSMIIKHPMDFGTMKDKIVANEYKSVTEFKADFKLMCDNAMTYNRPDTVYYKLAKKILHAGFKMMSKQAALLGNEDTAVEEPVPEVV
Nature of the assay: BRD9-H3 tetra-acetylated Peptide Inhibition AlphaScreen. The class given is binding. For orientation: Bead proximity is the source of the signal in Alpha formats.
From the text: Biological Methods BRD9-H3 tetra-acetylated Peptide Inhibition AlphaScreen
This assay is used to identify compounds which inhibit the interaction of the bromodomain of BRD9 with a tetra-acetylated peptide based on the sequence of histone H3 (H3 K9/14/18/23Ac (1-28)).
AlphaScreen Beads (Perkin Elmer):
AlphaLISA Glutathione Acceptor Beads
AlphaScreen Streptavidin Donor Beads
The assay is done in a darkened room below 100 Lux.
Compounds are dispensed onto assay plates using an Access Labcyte Workstation with the Labcyte Echo 550 from a DMSO solution. For the chosen highest concentration of 100 μM, 150 nl of compound solution are transferred from a 10 mM DMSO solution. […] DMSO is added such that every well has a total of 150 nl of DMSO.
After 60 min at room temperature the signal is measured in a PerkinElmer Envision HTS Multilabel Reader using the AlphaScreen specifications from PerkinElmer.
Each plate contains negative controls where biotinylated H3 K9/14/18/23Ac(1-28) peptide and GST-BRD9 are left out and replaced by assay buffer. Negative control values are entered as low basis value when using the software GraphPad Prism for calculations.
The molecule `COc1cc(-c2cc(C)c(=O)n(C)c2C)ccc1C1(N(C)C)CC1` [Compound I-122] gave an IC50 of 116 nM. Molecule `COc1cc(-c2cc(C)c(=O)n(C)c2C)cc(OC)c1CN1CCNCC1` [Compound I-124] gave a half-inhibitory concentration (IC50) of 144 nM. `COc1cc(S(=O)(=O)N(C)CCN(C)C)c(OC)cc1-c1cc(C)c(=O)n(C)c1C` [Compound I-125] came in with an IC50 of 166 nM.

In turn, `Cc1cc(-c2ccc3c(c2)CNC3)c(C)n(C)c1=O` [Compound I-126] gave an IC50 of 167 nM. `COc1cc(-c2cc(C)c(=O)n(C)c2C)ccc1CN1C[C@@H]2CC1CN2` [Compound I-127] yielded an IC50 of 198 nM. `COc1cc(-c2cc(C)c(=O)n(C)c2C)ccc1CN1C[C@H]2C[C@@H]1CN2C` [Compound I-128] had an IC50 of 222 nM. In the case of `Cc1cc(-c2ccc(C(=O)C3CCNCC3)cc2)c(C)n(C)c1=O` [Compound I-129], the midpoint of inhibition, the IC50, lay at 284 nM.

With `COCc1c(OC)cc(-c2cc(C)c(=O)n(C)c2C)cc1OC` [Compound I-130], half-maximal inhibition (IC50) required 302 nM. In the case of `COc1cc(-c2cc(C)c(=O)n(C)c2C)c(OC)cc1CN1CCN(C)CC1` [Compound I-131], 303 nM corresponded to half-maximal inhibition (IC50). For `COc1cc(-c2cc(C)c(=O)n(C)c2C)cc(OC)c1CN1CCN(C)CC1` [Compound I-132], half-maximal inhibition (IC50) was put at 322 nM. In turn, `COc1cc(-c2cc(C)c(=O)n(C)c2C)ccc1CN1C[C@@H]2CC1CN2C` [Compound I-133] displayed an IC50 of 387 nM. For `COc1cc(-c2cc(C)c(=O)n(C)c2C)ccc1CN1CC(OC)C1` [Compound I-134] the value was 394 nM; for `Cc1cc(-c2cc(C)c(=O)n(C)c2C)ccc1C1(N2CCN(C)CC2)CC1` [Compound I-135], 851 nM; for `Cc1cc(-c2cc(C)c(=O)n(C)c2C)ccc1C(=O)N1CCN(C)CC1` [Compound I-136], 1920 nM. Molecule `Cc1c(-c2ccc(CN)cc2)cn(C)c(=O)c1C` [Compound I-137, 5-(4-Aminomethyl-phenyl)-1,3,4-trimethyl-1H-pyridin-2-one] yielded a 50% inhibitory concentration (IC50) of 834 nM. Then `Cc1c(-c2ccc([C@H](C)N)cc2)cn(C)c(=O)c1C` [Compound I-138], with 1260 nM. In turn, `Cc1c(-c2ccc([C@@H](C)N)cc2)cn(C)c(=O)c1C` [Compound I-139] had an IC50 of 1380 nM. In the case of `Cc1cc(-c2ccc(CN)cc2)c(C)n(C)c1=O` [Compound I-140], the midpoint of inhibition, the IC50, lay at 880 nM. `Cc1cc(-c2ccc([C@@H](C)N)cc2)c(C)n(C)c1=O` [Compound I-141] registered an IC50 of 1860 nM. For the molecule `Cc1cc(-c2ccc([C@H](C)N)cc2)c(C)n(C)c1=O` [Compound I-142], inhibition was half-maximal at 1960 nM (IC50). For `COc1cc(-c2cc(C)c(=O)n(C)c2)ccc1COC1CNC1` [Compound I-144] the value was 26 nM. Molecule `COc1cc(-c2cc(C)c(=O)n(C)c2)cc(OC)c1CNC1CNC1` [Compound I-145] gave an IC50 of 32 nM. As for `CNC1CN(Cc2c(OC)cc(-c3cc(C)c(=O)n(C)c3)cc2OC)C1` [Compound I-146], the midpoint of inhibition, the IC50, lay at 33 nM. Molecule `COc1cc(S(=O)(=O)N2CCNCC2)c(OC)cc1-c1cc(C)c(=O)n(C)c1` [Compound I-147] returned an IC50 of 126 nM.

Take `COc1cc(-c2cc(C)c(=O)n(C)c2)ccc1S(=O)(=O)N1CCNCC1` [Compound I-148]: the IC50 turned out to be 144 nM. With `Cc1cc(-c2ccc(CN3CCNCC3)c(N(C)C)c2)cn(C)c1=O` [Compound I-149, 5-(3-Dimethylamino-4-piperazin-1-ylmethyl-phenyl)-1,3-dimethyl-1H-pyridin-2-one], the IC50 was 160 nM. For `COc1cc(-c2cc(C)c(=O)n(C)c2)c(OC)cc1CN1CCNCC1` [Compound I-150] the value was 298 nM; for `COc1cc(S(=O)(=O)NC2CNC2)c(OC)cc1-c1cn(C)c(=O)c(C)c1C` [Compound I-151], 26 nM. Then `CNCCN(C)S(=O)(=O)c1cc(OC)c(-c2cn(C)c(=O)c(C)c2C)cc1OC` [Compound I-152], with 145 nM; and `COc1cc(-c2cc(C)c(=O)n(C)c2C)ccc1COC1CNC1` [Compound I-153], with 29 nM.

Turning to `COc1cc(S(=O)(=O)NC2CNC2)c(OC)cc1-c1cc(C)c(=O)n(C)c1C` [Compound I-154], the IC50 came out at 38 nM. `CNCCN(C)S(=O)(=O)c1cc(OC)c(-c2cc(C)c(=O)n(C)c2C)cc1OC` [Compound I-155] displayed an IC50 of 128 nM. For the molecule `COc1cc(-c2cc(C)c(=O)n(C)c2C)c(OC)cc1CN1CCNCC1` [Compound I-156], the IC50 was 1780 nM.

The molecule `CCc1cc(-c2cc(C)c(=O)n(C)c2)cc(OC)c1C(=O)N1CCNCC1` [Compound I-157, 5-[3-Ethyl-5-methoxy-4-(piperazine-1-carbonyl)-phenyl]-1,3-dimethyl-1H-pyridin-2-one] showed an IC50 of 89 nM. In the case of `COc1cc(-c2cc(C)c(=O)n(C)c2)cc(C)c1C(=O)N1CCNCC1` [Compound I-159], half-maximal inhibition (IC50) required 167 nM. Take `Cc1cc(C(=O)N2CCNCC2)ccc1-c1cc(C)c(=O)n(C)c1` [Compound I-163]: 550 nM corresponded to half-maximal inhibition (IC50). Take `COc1cc(-c2cc(I)c(=O)n(C)c2)ccc1C(=O)N1CCNCC1` [Compound I-164, 3-Iodo-5-[3-methoxy-4-(piperazine-1-carbonyl)-phenyl]-1-methyl-1H-pyridin-2-one]: the IC50 is 64 nM. Then `COc1cc(-c2cc(I)c(=O)n(C)c2)ccc1C(=O)N1CCN(C)CC1` [Compound I-166], with 230 nM. Then `COc1cc(-c2cn(C)c(=O)c(I)c2C)cc(OC)c1CN(C)C` [Compound I-167], with 41 nM.

Molecule `COc1cc(-c2cc(I)c(=O)n(C)c2C)cc(OC)c1CN(C)C` [Compound I-168] displayed an IC50 of 40 nM. Turning to `Cc1cc(-c2ccc(C(=O)N3CCN(C)CC3)c(OC(F)(F)F)c2)cn(C)c1=O` [Compound I-177, 1,3-Dimethyl-5-[4-(4-methyl-piperazine-1-carbonyl)-3-trifluoromethoxy-phenyl]-1H-pyridin-2-one], half-maximal inhibition (IC50) required 1320 nM. `COc1cc(-c2cc(C)c(=O)n(C)c2)ccc1CN1CC(Cl)C1` [Compound I-178, 5-[4-(3-Chloro-azetidin-1-ylmethyl)-3-methoxy-phenyl]-1,3-dimethyl-1H-pyridin-2-one] returned an IC50 of 38 nM. As to `Cc1cc(-c2ccc(CN3CC(O)C3)cc2)cn(C)c1=O` [Compound I-179, 5-[4-(3-Hydroxy-azetidin-1-ylmethyl)-phenyl]-1,3-dimethyl-1H-pyridin-2-one], the IC50 was 187 nM. Take `Cc1cc(-c2ccc(CN3CCCC3)cc2)cn(C)c1=O` [Compound I-180]: the IC50 was determined as 870 nM. `CNCc1ccc(-c2cc(C)c(=O)n(C)c2)cc1` [Compound I-181] showed an IC50 of 1000 nM. Consider `Cc1cc(-c2ccc(CN3CCCCC3)cc2)cn(C)c1=O` [Compound I-182], for which the IC50 stood at 1050 nM.

In turn, `Cc1cc(-c2ccc(CN3CC4CCC3C4)cc2)cn(C)c1=O` (stereo not drawn) [Compound I-184] yielded an IC50 of 1320 nM. In turn, `Cc1cc(-c2ccc(Cn3ccnc3)cc2)cn(C)c1=O` [Compound I-185] showed an IC50 of 1550 nM.

Turning to `Cc1cc(-c2cc(C)c(=O)n(C)c2)c(C)cc1CN1CCNCC1` [Compound I-186, 5-(2,5-Dimethyl-4-piperazin-1-ylmethyl-phenyl)-1,3-dimethyl-1H-pyridin-2-one], inhibition was half-maximal at 967 nM (IC50).

In turn, `Cc1cc(-c2cc(C)c(=O)n(C)c2)c(C)cc1CN1CCN(C)CC1` [Compound I-187] showed an IC50 of 4300 nM. Then `Cc1cc(-c2ccc(CN3CCN(C)CC3)c(O)c2)cn(C)c1=O` [Compound I-194, 5-[3-Hydroxy-4-(4-methyl-piperazin-1-ylmethyl)-phenyl]-1,3-dimethyl-1H-pyridin-2-one], with 458 nM. For `COCCOc1cc(-c2cc(C)c(=O)n(C)c2)ccc1CN1CCN(C)CC1` [Compound I-195, 5-[3-(2-Methoxy-ethoxy)-4-(4-methyl-piperazin-1-ylmethyl)-phenyl]-1,3-dimethyl-1H-pyridin-2-one] the value was 369 nM; for `Cc1cc(-c2ccc(CN3CCN(C)CC3)c(OC(C)C)c2)cn(C)c1=O` [Compound I-196], 1010 nM; for `CCOc1cc(-c2cc(C)c(=O)n(C)c2)ccc1CN1CCN(C)CC1` [Compound I-197, 5-[3-Ethoxy-4-(4-methyl-piperazin-1-ylmethyl)-phenyl]-1,3-dimethyl-1H-pyridin-2-one], 468 nM. Then `COc1cc(-c2cc(C)c(=O)n(C)c2)ccc1CN1CCN(Cc2cccc(N)c2)CC1` [Compound I-198, 5-{4-[4-(3-Amino-benzyl)-piperazin-1-ylmethyl]-3-methoxy-phenyl}-1,3-dimethyl-1H-pyridin-2-one], with 71 nM; and `COc1cc(-c2cc(C)c(=O)n(C)c2)ccc1CN1CCN(Cc2ccc3nc[nH]c3c2)CC1` [Compound I-199], with 55 nM. `COc1cc(-c2cc(C)c(=O)n(C)c2)ccc1CN1CCN(Cc2cccc(O)c2)CC1` [Compound I-200] registered an IC50 of 132 nM. Molecule `COc1cc(-c2cc(C)c(=O)n(C)c2)cc(C)c1CN` [Compound I-202, 5-(4-Aminomethyl-3-methoxy-5-methyl-phenyl)-1,3-dimethyl-1H-pyridin-2-one] came in with an IC50 of 268 nM. For the molecule `Cc1cc(-c2ccc(CN3CCN(C)CC3)c(N(C)C)c2)cn(C)c1=O` [Compound I-204, 5-[3-Dimethylamino-4-(4-methyl-piperazin-1-ylmethyl)-phenyl]-1,3-dimethyl-1H-pyridin-2-one], the IC50 came to 231 nM.

Molecule `COc1cc(-c2cc(C)c(=O)n(C)c2)cc(OC)c1CNC1CN(C)C1` [Compound I-205, 5-{3,5-Dimethoxy-4-[(1-methyl-azetidin-3-ylamino)-methyl]-phenyl}-1,3-dimethyl-1H-pyridin-2-one] returned an IC50 of 69 nM.

Usually IC50 stands for the midpoint of a concentration-inhibition curve. Low readings indicate inhibition by little substance, high ones a need for much substance.
